Assay [1] relates to 3D7 line of P. falciparum. In words: P. falciparum asexual intraerythrocytic growth inhibition. It counts as cell-based. The conditions noted are these: for Selectivity index (SI) = (mammalian cell IC50)/(P. falciparum IC50): HepG2 vs Pf3D7.
Assay [2] concerns P. berghei exo-erythrocytic forms. In words: P. berghei-Luc liver stage assay. It counts as cell-based. The conditions noted are these: for Selectivity index (SI) = (mammalian cell IC50)/(Pb EEF IC50): HepG2 vs Pb EEF; for IC50: Plasmodium berghei, 48 h, read-out: Pb EEF IC50.
Assay [3] relates to HepG2 cells. As to the kind of experiment: HepG2 cytotoxicity bioluminescence assay. The conditions noted are these: Homo sapiens, HepG2, 48 h, read-out: IC50 (HepG2). It counts as cell-based.
In assay [4] the target is T1, human HDAC6 (hHDAC6) (Homo sapiens, UniProt Q9UBN7).
T1 sequence (Q9UBN7 1-1215): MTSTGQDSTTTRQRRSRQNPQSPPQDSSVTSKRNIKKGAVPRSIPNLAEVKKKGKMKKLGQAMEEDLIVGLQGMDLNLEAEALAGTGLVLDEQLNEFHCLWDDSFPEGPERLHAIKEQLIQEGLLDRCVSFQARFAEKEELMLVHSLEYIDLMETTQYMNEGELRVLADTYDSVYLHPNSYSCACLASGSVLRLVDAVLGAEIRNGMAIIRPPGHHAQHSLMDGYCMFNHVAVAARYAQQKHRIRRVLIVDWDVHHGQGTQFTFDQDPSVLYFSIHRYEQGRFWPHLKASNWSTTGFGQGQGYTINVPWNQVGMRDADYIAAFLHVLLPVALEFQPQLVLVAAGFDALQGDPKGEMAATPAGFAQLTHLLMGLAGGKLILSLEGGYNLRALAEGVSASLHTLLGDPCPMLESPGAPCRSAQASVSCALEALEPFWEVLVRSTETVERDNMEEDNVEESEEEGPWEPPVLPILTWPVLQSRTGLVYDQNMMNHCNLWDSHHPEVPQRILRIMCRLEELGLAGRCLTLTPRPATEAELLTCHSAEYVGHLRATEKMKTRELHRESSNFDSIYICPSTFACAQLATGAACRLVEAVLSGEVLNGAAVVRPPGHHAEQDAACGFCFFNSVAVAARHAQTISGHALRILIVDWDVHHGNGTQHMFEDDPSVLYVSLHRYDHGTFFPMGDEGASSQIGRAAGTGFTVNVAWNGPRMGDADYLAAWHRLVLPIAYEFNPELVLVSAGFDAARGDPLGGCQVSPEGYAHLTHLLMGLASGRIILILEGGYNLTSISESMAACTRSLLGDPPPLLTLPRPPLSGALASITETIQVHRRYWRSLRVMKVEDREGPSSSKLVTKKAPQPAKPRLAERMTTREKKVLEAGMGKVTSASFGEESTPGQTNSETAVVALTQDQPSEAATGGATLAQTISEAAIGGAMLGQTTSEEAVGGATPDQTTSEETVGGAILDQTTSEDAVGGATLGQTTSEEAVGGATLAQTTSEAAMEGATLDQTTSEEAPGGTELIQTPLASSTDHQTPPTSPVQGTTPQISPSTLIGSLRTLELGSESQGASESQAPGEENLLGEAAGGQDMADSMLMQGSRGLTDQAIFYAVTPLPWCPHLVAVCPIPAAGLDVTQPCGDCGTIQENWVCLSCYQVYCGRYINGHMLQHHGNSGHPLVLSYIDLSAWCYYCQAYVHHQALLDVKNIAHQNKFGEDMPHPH
As to the kind of experiment: In vitro testing on hHDAC6.

The target of assay [5] is human HDAC1 (hHDAC1) (Homo sapiens, UniProt Q13547). As to the kind of experiment: In vitro testing on hHDAC1.
Sequence of human HDAC1 (hHDAC1) (Q13547 whole entry): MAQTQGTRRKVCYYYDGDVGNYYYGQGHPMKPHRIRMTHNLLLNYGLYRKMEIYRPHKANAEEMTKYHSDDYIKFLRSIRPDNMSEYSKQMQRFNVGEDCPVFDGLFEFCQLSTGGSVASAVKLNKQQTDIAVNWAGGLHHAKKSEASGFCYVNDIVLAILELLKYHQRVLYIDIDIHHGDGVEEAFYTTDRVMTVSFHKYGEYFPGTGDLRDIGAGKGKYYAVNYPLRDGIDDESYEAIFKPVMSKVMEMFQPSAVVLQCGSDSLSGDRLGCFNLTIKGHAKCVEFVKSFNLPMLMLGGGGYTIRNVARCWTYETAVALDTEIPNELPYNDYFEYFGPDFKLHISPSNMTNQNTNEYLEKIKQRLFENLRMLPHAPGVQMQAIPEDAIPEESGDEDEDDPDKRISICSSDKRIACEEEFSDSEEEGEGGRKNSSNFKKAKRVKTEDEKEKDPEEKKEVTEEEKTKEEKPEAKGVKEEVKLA
In assay [6] the test system is mature stage V P. falciparum gametocytes. As to the kind of experiment: Gametocytocidal activity. It counts as cell-based. The conditions noted are these: Plasmodium falciparum, NF54, 48 h, read-out: Pf stage V gametocytes IC50.
[7] abbreviates: Plasmodium falciparum, 3D7, read-out: IC50 (Pf3D7).
Where [8] appears, read: Plasmodium falciparum, 3D7, read-out: IC50 (Pf3D7), asexual intraerythrocytic stage P. falciparum 3D7.

Where “and” joins values, the source holds several entries; their conditions need not be identical. Identical values can stand only once. Like-named read-outs stand apart in the source and are kept apart here.

The results in this text go back to PMC6502651 (ChemMedChem, 2019).

For orientation: IC50 means the concentration at which inhibition is half-maximal.

In the case of `CC(C)c1ccc(C(=O)N(CC(=O)NC2CCCCC2)c2ccc(C(=O)NO)cc2)cc1` [Compound 2a, N-(2-(cyclohexylamino)-2-oxoethyl)-N-(4-(hydroxycarbamoyl)phenyl)-4-isopropylbenzamid], the 50% inhibitory concentration (IC50) in assay [1] (setting [7]) was 570 to 77700 nM. In assay [2], the “Selectivity index (SI) = (mammalian cell IC50)/(Pb EEF IC50)” value came to 4 and the IC50 was 9700 nM.
As for `Cc1cc(C)cc(C(=O)N(CC(=O)NC2CCCCC2)c2ccc(C(=O)NO)cc2)c1` [Compound 2b, N-(2-(cyclohexylamino)-2-oxoethyl)-N-(4-(hydroxycarbamoyl)phenyl)-3,5-dimethylbenzamide], the 50% inhibitory concentration (IC50) in assay [1] (setting [7]) lay within 570 to 77700 nM. In assay [2], the “Selectivity index (SI) = (mammalian cell IC50)/(Pb EEF IC50)” value worked out at 2 and the 50% inhibitory concentration (IC50) stood at 20200 nM.
In the case of `Cc1ccccc1C(=O)N(CC(=O)NC(C)(C)C)Cc1ccc(C(=O)NO)cc1` [Compound 2e, N-(2-(tert-Butylamino)-2-oxoethyl)-N-(4-(hydroxycarbamoyl)benzyl)-2-methylbenzamide], the IC50 in assay [3] is > 50000 nM. For the same molecule, the “Selectivity index (SI) = hHDAC1/hHDAC6” value in assay [4] is listed as 47. Further, in assay [2], the “Selectivity index (SI) = (mammalian cell IC50)/(Pb EEF IC50)” value is recorded as >5 and the IC50 came to 9700 nM.
In the case of `COc1ccccc1C(=O)N(CC(=O)NC(C)(C)C)Cc1ccc(C(=O)NO)cc1` [Compound 2f, N-(2-(tert-Butylamino)-2-oxoethyl)-N-(4-(hydroxycarbamoyl)benzyl)-2-methoxybenzamide], the IC50 in assay [3] was > 50000 nM; in assay [1] (setting [8]), 110 to 250 nM; in assay [2] it was 26700 nM. Moreover, in assay [4], the “Selectivity index (SI) = hHDAC1/hHDAC6” value was determined as 82. Further, the “Selectivity index (SI) = (mammalian cell IC50)/(Pb EEF IC50)” value in assay [2] is listed as >2.
For the molecule `CC(C)(C)c1ccc(C(=O)N(CC(=O)NCc2ccccc2)Cc2ccc(C(=O)NO)cc2)cc1` [Compound 2g, N-(2-(Benzylamino)-2-oxoethyl)-4-(tert-butyl)-N-(4-(hydroxycarbamoyl)benzyl)benzamide], the IC50 in assay [3] is 5000 to 13000 nM; in assay [5], 34 nM; in assay [4], 71 nM; in assay [1] (setting [7]), 5.2 to 8.8 nM; in assay [2], 580 nM. Besides, in assay [4], the “Selectivity index (SI) = hHDAC1/hHDAC6” value is reported as <1. The “Selectivity index (SI) = (mammalian cell IC50)/(P. falciparum IC50)” value in assay [1] is 889–1483. Also, the “Selectivity index (SI) = (mammalian cell IC50)/(Pb EEF IC50)” value in assay [2] was 23.
On to `CC(C)c1ccc(C(=O)N(CC(=O)NCc2ccccc2)Cc2ccc(C(=O)NO)cc2)cc1` [Compound 2h, N-(2-(Benzylamino)-2-oxoethyl)-N-(4-(hydroxycarbamoyl)benzyl)-4-isopropylbenzamide], for which the half-maximal inhibitory concentration (IC50) was 5000 to 13000 nM in assay [3]; 19 nM in assay [5]; 51 nM in assay [4]; 5.2 to 8.8 nM in assay [1] (setting [8]); 5.2 nM in assay [1] (read-out: IC50 (Pf3D7), asexual intraerythrocytic stage P. falciparum 3D7); 16 nM in assay [2]. The “Selectivity index (SI) = hHDAC1/hHDAC6” value in assay [4] is reported as <1. Besides, the “Selectivity index (SI) = (mammalian cell IC50)/(P. falciparum IC50)” value in assay [1] is 889–1483 and 889. In assay [2], the “Selectivity index (SI) = (mammalian cell IC50)/(Pb EEF IC50)” value was 289.
On to `CN(C)c1ccc(C(=O)N(CC(=O)NCc2ccccc2)Cc2ccc(C(=O)NO)cc2)cc1` [Compound 2i, N-(2-(Benzylamino)-2-oxoethyl)-4-(dimethylamino)-N-(4-(hydroxycarbamoyl)benzyl)benzamide], for which the IC50 in assay [3] turned out to be 620 nM; in assay [5], 7.7 nM; in assay [2], 22 nM. In addition, the “Selectivity index (SI) = hHDAC1/hHDAC6” value in assay [4] is on record as <1. In assay [1], the “Selectivity index (SI) = (mammalian cell IC50)/(P. falciparum IC50)” value stood at 64. Moreover, the “Selectivity index (SI) = (mammalian cell IC50)/(Pb EEF IC50)” value in assay [2] was 28.
Regarding `Cc1cc(C)cc(C(=O)N(CC(=O)NCc2ccccc2)Cc2ccc(C(=O)NO)cc2)c1` [Compound 2j, N-(2-(Benzylamino)-2-oxoethyl)-N-(4-(hydroxycarbamoyl)benzyl)-3,5-dimethylbenzamide], the IC50 was found to be 9570 nM in assay [3], 37 nM in assay [1] (setting [7]) and 73 nM in assay [2]. Besides, the “Selectivity index (SI) = (mammalian cell IC50)/(P. falciparum IC50)” value in assay [1] is reported as 259. Also, the “Selectivity index (SI) = (mammalian cell IC50)/(Pb EEF IC50)” value in assay [2] is given as 131.
Regarding `Cc1ccc(CNC(=O)CN(Cc2ccc(C(=O)NO)cc2)C(=O)c2cc(C)cc(C)c2)cc1` [Compound 2k, N-(4-(Hydroxycarbamoyl)benzyl)-3,5-dimethyl-N-(2-((4-methylbenzyl)amino)-2-oxoethyl)benzamide], in assay [2], the “Selectivity index (SI) = (mammalian cell IC50)/(Pb EEF IC50)” value is on record as 70 and the IC50 came to 210 nM.
In the case of `COc1ccc(CNC(=O)CN(Cc2ccc(C(=O)NO)cc2)C(=O)c2cc(C)cc(C)c2)cc1` [Compound 2l, N-(4-(Hydroxycarbamoyl)benzyl)-N-(2-((4-methoxybenzyl)amino)-2-oxoethyl)-3,5-dimethylbenzamide], the IC50 in assay [6] came to 10200 nM. In assay [2], the “Selectivity index (SI) = (mammalian cell IC50)/(Pb EEF IC50)” value came out at 34 and the IC50 came to 570 nM.
As for `Cc1cc(C)cc(C(=O)N(CC(=O)NCc2ccc(F)cc2)Cc2ccc(C(=O)NO)cc2)c1` [Compound 2m, N-(2-((4-Fluorobenzyl)amino)-2-oxoethyl)-N-(4-(hydroxycarbamoyl)benzyl)-3,5-dimethylbenzamide], in assay [2], the “Selectivity index (SI) = (mammalian cell IC50)/(Pb EEF IC50)” value is reported as 185 and the IC50 worked out at 110 nM.
The corresponding values for `Cc1cc(C)cc(C(=O)N(CC(=O)NCc2ccc(Cl)cc2)Cc2ccc(C(=O)NO)cc2)c1` [Compound 2n, N-(2-((4-Chlorobenzyl)amino)-2-oxoethyl)-N-(4-(hydroxycarbamoyl)benzyl)-3,5-dimethylbenzamide] are 21 and 1000 nM.
The corresponding values for `Cc1cc(C)cc(C(=O)N(CC(=O)NCc2ccc(C(C)(C)C)cc2)Cc2ccc(C(=O)NO)cc2)c1` [Compound 2o, N-(2-((4-(tert-Butyl)benzyl)amino)-2-oxoethyl)-N-(4-(hydroxycarbamoyl)benzyl)-3,5-dimethylbenzamide] are 2 and 16600 nM.
The corresponding values for `Cc1cccc(CNC(=O)CN(Cc2ccc(C(=O)NO)cc2)C(=O)c2cc(C)cc(C)c2)c1` [Compound 2q, N-(4-(Hydroxycarbamoyl)benzyl)-3,5-dimethyl-N-(2-((3-methylbenzyl)amino)-2-oxoethyl)benzamide] are 157 and 130 nM.
Turning to `Cc1cc(C)cc(C(=O)N(CC(=O)NCc2cccnc2)Cc2ccc(C(=O)NO)cc2)c1` [Compound 2r, N-(4-(Hydroxycarbamoyl)benzyl)-3,5-dimethyl-N-(2-oxo-2-((pyridin-3-ylmethyl)amino)ethyl)benzamide], the 50% inhibitory concentration (IC50) in assay [3] came out at 41900 nM; in assay [1] (setting [7]), 79 nM; in assay [2] it was 16700 nM. Further, in assay [1], the “Selectivity index (SI) = (mammalian cell IC50)/(P. falciparum IC50)” value is 530. Also, in assay [2], the “Selectivity index (SI) = (mammalian cell IC50)/(Pb EEF IC50)” value was found to be 3.
With `CNC(=O)CN(Cc1ccc(C(=O)NO)cc1)C(=O)c1ccccc1C` [Compound 2t, N-(4-(Hydroxycarbamoyl)benzyl)-2-methyl-N-(2-(methylamino)-2-oxoethyl)benzamide], the IC50 in assay [3] was > 50000 nM; in assay [5], 2010 nM; in assay [4], 32 nM; in assay [1] (setting [8]), 54 to 120 nM; in assay [2], 28000 nM. The “Selectivity index (SI) = hHDAC1/hHDAC6” value in assay [4] is 63. The “Selectivity index (SI) = (mammalian cell IC50)/(P. falciparum IC50)” value in assay [1] was > 704. The “Selectivity index (SI) = (mammalian cell IC50)/(Pb EEF IC50)” value in assay [2] is given as >2.
As to `CCN(CC)CCCC(C)Nc1ccnc2cc(Cl)ccc12` (stereo not shown) [chloroquine, reference compound], the IC50 in assay [1] (setting [7]) turned out to be 6.8 nM.
